Values of other authors, collected in US20130287890A1, “INHIBITOR OF THE PRODUCTION OF ADVANCED GLYCATION END PRODUCTS” (UENO FINE CHEMICALS INDUSTRY, LTD., priority 2012, published 2013).

Conditions: background art; cited from earlier work

Compound: N=C(N)NN [Aminoguanidine, aminoguanidine]
- adverse drug reactions: hepatic impairment
